# Assays:
# [1] = Ex.2 neonatal HIE rat model, pre-treatment: brain weight; type: in vivo; conditions: E4 5 mg/kg ip day 4-7 before HI; day 14; vs vehicle
# Experimental: Ischemia was produced by surgery encompassing left common carotid artery double ligation and cut; hypoxia was produced by the inhalation of 11%-8% of oxygen balanced by nitrogen at decreased concentration of oxygen for 20 minutes, followed by inhalation of 8% oxygen and 92% nitrogen at constant concentration for 35 minutes.
# Animals were then perfused transcardially with 0.9% saline solution at 4° C., and then with 4% paraformaldehyde in a 0.1-mol/L phosphate-buffered saline solution (pH 7.4) at 4° C. The brains were quickly isolated, weighed and immersed in the same fixative solution at 4° C. for 24 hours, dehydrated with a graded series of ethanol and xylene, and embedded in paraffin.
# After delivery, newborn rat pups were assigned to one of the following 4 groups: Sham group, Vehicle group, E4 5 mg/kg/per day group and E4 50 mg/kg/per day group. From day 4 to day 7 inclusive, rat pups were injected intraperitoneally either vehicle (Vehicle group) or E4 (5 mg/kg or 50 mg/kg in accordance to the group assignment) or not injected at all (Sham group). […]
# [2] = test system: Microtubule-associated protein 2 (MAP2); assay: Ex.8 neuroprotective HIE rat model: MAP2 staining; type: in vivo; conditions: 10 mg/kg/day E4
# Experimental: Newborn rat pups were assigned to one of the following 14 groups from postnatal day 4 (FIG. 23(A)): Sham group (n=12), Vehicle group (n=17), 5 mg/kg/day E4 (n=13), 10 mg/kg/day E4 (n=10), 5 mg/kg/day E4+1.6 mg/kg/day PROG (n=11), 10 mg/kg/day E4+1.6 mg/kg/day PROG (n=11), 5 mg/kg/day E4+16 mg/kg/day PROG (n=11), 10 mg/kg/day E4+16 mg/kg/day PROG (n=11), 5 mg/kg/day E4+136 ng//kg/day E2 (n=11), 10 mg/kg/day E4+136 ng/kg/day E2 (n=11), 5 mg/kg/day E4+1.6 mg/kg/day PROG+136 ng/kg/day (n=13) E2, 10 mg/kg/day E4+1.6 mg/kg/day PROG+136 ng/kg/day E2 (n=16), 5 mg/kg/day E4+16 mg/kg/day PROG+136 ng/kg/day E2 (n=11), 10 mg/kg/day E4+16 mg/kg/day PROG+136 ng/kg/day groups (n=13). Intraperitoneal injections of the pups from study groups were performed from postnatal day 4 to postnatal day 7 inclusively. […]
# The brain sections were processed for immunohistochemical detection of neuronal cytoskeletal disruption. […] Samples were analyzed with the aid of an image scanner (Nanozoomer Virtual Microscopy, Hamamatsu, Tokyo, Japan) and the ImageJ software (NIH, US). The positive areas in the ipsilateral and contralateral hemispheres were measured. The ratio of the MAP2 positive areas was calculated as the MAP2 positive area of the ipsilateral hemisphere divided by the MAP2 positive area of the contralateral hemisphere. […]
structure (smiles),measurement,setting,value
"C[C@]12CC[C@@H]3c4ccc(O)cc4CC[C@H]3[C@@H]1[C@@H](O)[C@@H](O)[C@@H]2O [E4, 1,3,5(10)-estratrien-3,15α,16α,17β-tetrol]",brain weight,[1],significantly higher
same,ratio of MAP2-positive area (ipsilateral/contralateral),[2],0.97±0.01

# From patent US9808470B2, “Estrogenic components for use in the treatment of neurological disorders” (UNIVERSITE DE LIEGE, priority 2012, dated 2017)
